Data: the NIST ThermoML archive (doi:10.1016/j.jct.2019.02.011)
± gives the expanded uncertainty stated by the source.

Test: xn = mol fraction of the nth substance listed
Conditions: 298.15 K; 40000 kPa; Liquid; Vibrating tube method; x2 = 0

Structure (SMILES)	mass density [kg/m3]
CCO [ethanol] + COC(=O)OC	815.03 ± 0.63
CO [methanol] + COC(=O)OC	818.33 ± 0.61
CCCO [propan-1-ol] + COC(=O)OC	825.81 ± 0.62

Same assay, conditions: 303.15 K; 100 kPa; Liquid; Vibrating tube method; x2 = 0

Structure (SMILES)	mass density [kg/m3]
CCO [ethanol] + COC(=O)OC	781.19 ± 0.52
CO [methanol] + COC(=O)OC	782.07 ± 0.51
CCCO [propan-1-ol] + COC(=O)OC	795.62 ± 0.52

Same assay, conditions: 303.15 K; 5000 kPa; Liquid; Vibrating tube method; x2 = 0

Structure (SMILES)	mass density [kg/m3]
CCO [ethanol] + COC(=O)OC	785.47 ± 0.53
CO [methanol] + COC(=O)OC	786.79 ± 0.52
CCCO [propan-1-ol] + COC(=O)OC	799.57 ± 0.53

Same assay, conditions: 303.15 K; 10000 kPa; Liquid; Vibrating tube method; x2 = 0

Structure (SMILES)	mass density [kg/m3]
CCO [ethanol] + COC(=O)OC	789.66 ± 0.54
CO [methanol] + COC(=O)OC	791.31 ± 0.53
CCCO [propan-1-ol] + COC(=O)OC	803.13 ± 0.54

Same assay, conditions: 303.15 K; 15000 kPa; Liquid; Vibrating tube method; x2 = 0

Structure (SMILES)	mass density [kg/m3]
CCO [ethanol] + COC(=O)OC	793.71 ± 0.55
CO [methanol] + COC(=O)OC	795.85 ± 0.54
CCCO [propan-1-ol] + COC(=O)OC	806.69 ± 0.55

Same assay, conditions: 303.15 K; 20000 kPa; Liquid; Vibrating tube method; x2 = 0

Structure (SMILES)	mass density [kg/m3]
CCO [ethanol] + COC(=O)OC	797.54 ± 0.57
CO [methanol] + COC(=O)OC	800.16 ± 0.56
CCCO [propan-1-ol] + COC(=O)OC	810.14 ± 0.56

Same assay, conditions: 303.15 K; 25000 kPa; Liquid; Vibrating tube method; x2 = 0

Structure (SMILES)	mass density [kg/m3]
CCO [ethanol] + COC(=O)OC	801.26 ± 0.58
CO [methanol] + COC(=O)OC	804.08 ± 0.57
CCCO [propan-1-ol] + COC(=O)OC	813.48 ± 0.58

Same assay, conditions: 303.15 K; 30000 kPa; Liquid; Vibrating tube method; x2 = 0

Structure (SMILES)	mass density [kg/m3]
CCO [ethanol] + COC(=O)OC	804.81 ± 0.6
CO [methanol] + COC(=O)OC	807.78 ± 0.58
CCCO [propan-1-ol] + COC(=O)OC	816.64 ± 0.59

Same assay, conditions: 303.15 K; 35000 kPa; Liquid; Vibrating tube method; x2 = 0

Structure (SMILES)	mass density [kg/m3]
CCO [ethanol] + COC(=O)OC	808.29 ± 0.62
CO [methanol] + COC(=O)OC	811.31 ± 0.6
CCCO [propan-1-ol] + COC(=O)OC	819.75 ± 0.61

Same assay, conditions: 303.15 K; 40000 kPa; Liquid; Vibrating tube method; x2 = 0

Structure (SMILES)	mass density [kg/m3]
CCO [ethanol] + COC(=O)OC	811.43 ± 0.64
CO [methanol] + COC(=O)OC	814.7 ± 0.61
CCCO [propan-1-ol] + COC(=O)OC	822.6 ± 0.62

Same assay, conditions: 308.15 K; 100 kPa; Liquid; Vibrating tube method; x2 = 0

Structure (SMILES)	mass density [kg/m3]
CCO [ethanol] + COC(=O)OC	776.6 ± 0.52
CO [methanol] + COC(=O)OC	777.09 ± 0.51
CCCO [propan-1-ol] + COC(=O)OC	791.31 ± 0.52

Same assay, conditions: 308.15 K; 5000 kPa; Liquid; Vibrating tube method; x2 = 0

Structure (SMILES)	mass density [kg/m3]
CCO [ethanol] + COC(=O)OC	780.98 ± 0.53
CO [methanol] + COC(=O)OC	781.85 ± 0.52
CCCO [propan-1-ol] + COC(=O)OC	795.4 ± 0.53

Same assay, conditions: 308.15 K; 10000 kPa; Liquid; Vibrating tube method; x2 = 0

Structure (SMILES)	mass density [kg/m3]
CCO [ethanol] + COC(=O)OC	785.42 ± 0.54
CO [methanol] + COC(=O)OC	786.63 ± 0.53
CCCO [propan-1-ol] + COC(=O)OC	799.21 ± 0.54

Same assay, conditions: 308.15 K; 15000 kPa; Liquid; Vibrating tube method; x2 = 0

Structure (SMILES)	mass density [kg/m3]
CCO [ethanol] + COC(=O)OC	789.62 ± 0.56
CO [methanol] + COC(=O)OC	791.23 ± 0.54
CCCO [propan-1-ol] + COC(=O)OC	802.79 ± 0.55

Same assay, conditions: 308.15 K; 20000 kPa; Liquid; Vibrating tube method; x2 = 0

Structure (SMILES)	mass density [kg/m3]
CCO [ethanol] + COC(=O)OC	793.63 ± 0.57
CO [methanol] + COC(=O)OC	795.58 ± 0.56
CCCO [propan-1-ol] + COC(=O)OC	806.37 ± 0.57

Same assay, conditions: 308.15 K; 25000 kPa; Liquid; Vibrating tube method; x2 = 0

Structure (SMILES)	mass density [kg/m3]
CCO [ethanol] + COC(=O)OC	797.42 ± 0.59
CO [methanol] + COC(=O)OC	799.85 ± 0.57
CCCO [propan-1-ol] + COC(=O)OC	809.72 ± 0.58

Same assay, conditions: 308.15 K; 30000 kPa; Liquid; Vibrating tube method; x2 = 0

Structure (SMILES)	mass density [kg/m3]
CCO [ethanol] + COC(=O)OC	801.06 ± 0.6
CO [methanol] + COC(=O)OC	803.73 ± 0.59
CCCO [propan-1-ol] + COC(=O)OC	813.03 ± 0.6

Same assay, conditions: 308.15 K; 35000 kPa; Liquid; Vibrating tube method; x2 = 0

Structure (SMILES)	mass density [kg/m3]
CCO [ethanol] + COC(=O)OC	804.6 ± 0.62
CO [methanol] + COC(=O)OC	807.42 ± 0.6
CCCO [propan-1-ol] + COC(=O)OC	816.12 ± 0.61

Same assay, conditions: 308.15 K; 40000 kPa; Liquid; Vibrating tube method; x2 = 0

Structure (SMILES)	mass density [kg/m3]
CCO [ethanol] + COC(=O)OC	808.06 ± 0.64
CO [methanol] + COC(=O)OC	811.08 ± 0.62
CCCO [propan-1-ol] + COC(=O)OC	819.06 ± 0.63

Test: not given
Conditions: 288.15 K; 100 kPa; Liquid; Vibrating tube method

Structure (SMILES)	mass density [kg/m3]
COC(=O)OC [dimethyl carbonate]	1076.83 ± 0.57
CCO [ethanol]	794.39 ± 0.52
CO [methanol]	796.19 ± 0.51
CCCO [propan-1-ol]	807.62 ± 0.52

Same assay, conditions: 288.15 K; 5000 kPa; Liquid; Vibrating tube method

Structure (SMILES)	mass density [kg/m3]
COC(=O)OC [dimethyl carbonate]	1081.15 ± 0.57
CCO [ethanol]	798.18 ± 0.53
CO [methanol]	800.57 ± 0.52
CCCO [propan-1-ol]	811.32 ± 0.52

Same assay, conditions: 288.15 K; 10000 kPa; Liquid; Vibrating tube method

Structure (SMILES)	mass density [kg/m3]
COC(=O)OC [dimethyl carbonate]	1085.32 ± 0.58
CCO [ethanol]	802.2 ± 0.54
CO [methanol]	804.93 ± 0.53
CCCO [propan-1-ol]	814.7 ± 0.53

Same assay, conditions: 288.15 K; 15000 kPa; Liquid; Vibrating tube method

Structure (SMILES)	mass density [kg/m3]
COC(=O)OC [dimethyl carbonate]	1089.52 ± 0.6
CCO [ethanol]	806.02 ± 0.55
CO [methanol]	808.85 ± 0.54
CCCO [propan-1-ol]	817.95 ± 0.55

Same assay, conditions: 288.15 K; 20000 kPa; Liquid; Vibrating tube method

Structure (SMILES)	mass density [kg/m3]
COC(=O)OC [dimethyl carbonate]	1093.35 ± 0.61
CCO [ethanol]	809.69 ± 0.56
CO [methanol]	812.92 ± 0.55
CCCO [propan-1-ol]	821.27 ± 0.56

Same assay, conditions: 288.15 K; 25000 kPa; Liquid; Vibrating tube method

Structure (SMILES)	mass density [kg/m3]
COC(=O)OC [dimethyl carbonate]	1096.99 ± 0.62
CCO [ethanol]	812.95 ± 0.58
